Data from patent US8025905B2, “Method for reducing allergencity in indoor spaces” (priority 2001, dated 2011).

What was measured:
house dust mites = conditions: levels of only 0.1% permethrin; cited from earlier work
[1] = ointment containing 5% permethrin applied for 12 hours, then washed off; cited from earlier work
allergenic polypeptides = test: Enzymatic degradation of allergens by proteases; type: biochemical
From the text: Any enzyme that will cleave the allergenic polypeptides to destroy the epitopes recognized by the asthmatic's sensitized immune system is suitable, but proteases that are less specific (i.e., hydrolyze peptide bonds between a variety of different amino acid residues, rather than only between specific residues) are preferred. […] Similar non-specific proteases are suitable for use in this invention, as well as Bacillus neutral proteases and the like. Genetically engineered enzymes are within the contemplation of this invention, so long as the resulting enzyme can be shown to destroy allergenic epitopes of the primary allergens, as shown by ELISA tests (see, e.g., U.S. Pat. No. 5,314,991). Suitable assays may be analogous to the tests for active T cell epitopes of Der pI, Der pII, Der f1, and Der fII disclosed in U.S. Pat. No. 5,968,526 (incorporated herein by reference).

Molecule | kill of house dust mites in carpet (house dust mites) | permethrin absorbed through the skin [1] | effectiveness in cleaving allergenic polypeptides (allergenic polypeptides)
CC1(C)C(C=C(Cl)Cl)C1C(=O)OCc1cccc(Oc2ccccc2)c1 (stereo not shown) [Permethrin] | 100% | Less than 2% | 
subtilisin BPN: subtilisin-type protease derived from B. amyloliquefaciens (protein, UniProt P00782 108-382, looked up) Subtilisin BPN': AQSVPYGVSQIKAPALHSQGYTGSNVKVAVIDSGIDSSHPDLKVAGGASMVPSETNPFQDNNSHGTHVAGTVAALNNSIGVLGVAPSASLYAVKVLGADGSGQYSWIINGIEWAIANNMDVINMSLGGPSGSAALKAAVDKAVASGVVVVAAAGNEGTSGSSSTVGYPGKYPSVIAVGAVDSSNQRASFSSVGPELDVMAPGVSIQSTLPGNKYGAYNGTSMASPHVAGAAALILSKHPNWTNTQVRSSLENTTTKLGDSFYYGKGLINVQAAAQ |  |  | effective
subtilisin savinase: subtilisin-type protease derived from Bacillus lentus (protein, UniProt P29600 1-269, looked up) Subtilisin Savinase: AQSVPWGISRVQAPAAHNRGLTGSGVKVAVLDTGISTHPDLNIRGGASFVPGEPSTQDGNGHGTHVAGTIAALNNSIGVLGVAPSAELYAVKVLGASGSGSVSSIAQGLEWAGNNGMHVANLSLGSPSPSATLEQAVNSATSRGVLVVAASGNSGAGSISYPARYANAMAVGATDQNNNRASFSQYGAGLDIVAPGVNVQSTYPGSTYASLNGTSMATPHVAGAAALVKQKNPSWSNVQIRNHLKNTATSLGSTNLYGSGLVNAEAATR |  |  | effective
